#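 Protocol summary: plate cells (96-well), add compound at 5 concentrations, incubate 48 h, interpolate endpoints linearly. Here, GI50 denotes the concentration required for 50% inhibition of growth.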 Calls of active or inactive are those of the source. Cut-off read from the data, not from the text of the source: active = GI50 up to about 1.1 µM and inactive = higher.
# How the values were obtained:
# Assay in all cases: NCI anticancer screen, dose series, 48 h
# [1] = system: KM12
# [2] = system: SNB-19
# [3] = system: OVCAR-5
# [4] = system: HL-60
# [5] = system: IGROV-1
# [6] = system: PC-3
# [7] = system: SR
# [8] = system: SK-OV-3
# [9] = system: HCT-116
# [10] = system: A549
# [11] = system: NCI-H460
# [12] = system: OVCAR-4
# [13] = system: OVCAR-3
# [14] = system: OVCAR-8
# [15] = system: M14
# [16] = system: DU-145
# [17] = system: A498
# [18] = system: HT-29
# [19] = system: NCI/ADR-RES
# [20] = system: SK-MEL-2
SMILES,GI50 [1],GI50 [2],GI50 [3],GI50 [4],GI50 [5],GI50 [6],GI50 [7],GI50 [8],GI50 [9],GI50 [10],GI50 [11],GI50 [12],GI50 [13],GI50 [14],GI50 [15],GI50 [16],GI50 [17],GI50 [18],GI50 [19],GI50 [20]
C=CCOC(C)(C)C1=CCC(C)CC1 (stereo unspecified),> 100 µM (inactive),> 100 µM (inactive),> 100 µM (inactive),> 100 µM (inactive),> 100 µM (inactive),> 100 µM (inactive),> 10 µM (inactive),> 100 µM (inactive),> 100 µM (inactive),> 100 µM (inactive),> 100 µM (inactive),> 100 µM (inactive),> 100 µM (inactive),> 100 µM (inactive),> 100 µM (inactive),> 100 µM (inactive),> 100 µM (inactive),> 100 µM (inactive),,
COc1c(O)c2c(c3cc(C(=O)N4CCc5c4c(O)c(OC)c4[nH]c(C(=O)N6CC7CC78C6=CC(=O)c6[nH]cc(C)c68)cc54)[nH]c13)CCN2C(N)=O (stereo unspecified) [CC-1065],0.003 µM (active),0.00457 µM (active),,0.00783 µM (active),,0.164 µM (active),0.00914 µM (active),0.00217 µM (active),0.000207 µM (active),0.000232 µM (active),0.000175 µM (active),,0.0197 µM (active),0.000317 µM (active),0.0016 µM (active),0.284 µM (active),0.0028 µM (active),,,
CC(C)/C(Cl)=N\OC(=O)NNc1ccccc1,1.55 µM (inactive),73.3 µM (inactive),> 100 µM (inactive),,1.8 µM (inactive),0.174 µM (active),,> 100 µM (inactive),1.03 µM (active),0.0721 µM (active),< 0.01 µM (active),7.48 µM (inactive),> 35.8 µM (inactive),0.168 µM (active),3.47 µM (inactive),> 100 µM (inactive),75.2 µM (inactive),0.397 µM (active),28.1 µM (inactive),> 32.1 µM (inactive)
O=C(O)c1nc2cc(C(F)(F)F)ccc2nc1Nc1ccc(F)cc1,6.64 µM (inactive),16.7 µM (inactive),35.1 µM (inactive),,18.7 µM (inactive),10.8 µM (inactive),17.1 µM (inactive),30.7 µM (inactive),15.4 µM (inactive),11.2 µM (inactive),,,15.8 µM (inactive),19.4 µM (inactive),27 µM (inactive),,14.3 µM (inactive),23 µM (inactive),20 µM (inactive),7.16 µM (inactive)
NC(=O)C(=CN1CC(=O)NC1=S)C(N)=O,> 100 µM (inactive),> 100 µM (inactive),> 100 µM (inactive),> 100 µM (inactive),> 100 µM (inactive),,,> 100 µM (inactive),> 100 µM (inactive),> 100 µM (inactive),> 100 µM (inactive),> 100 µM (inactive),> 100 µM (inactive),> 100 µM (inactive),> 100 µM (inactive),> 100 µM (inactive),> 100 µM (inactive),> 100 µM (inactive),> 100 µM (inactive),> 100 µM (inactive)
CCc1ccc(Nc2cc(=O)[nH]c(SCc3ccccc3)n2)cc1,> 100 µM (inactive),38.2 µM (inactive),> 100 µM (inactive),> 100 µM (inactive),> 100 µM (inactive),,> 100 µM (inactive),> 100 µM (inactive),80.7 µM (inactive),> 100 µM (inactive),,,39.4 µM (inactive),44.9 µM (inactive),> 100 µM (inactive),> 100 µM (inactive),> 100 µM (inactive),> 100 µM (inactive),74.1 µM (inactive),> 100 µM (inactive)
C/C(=C1/N=C(c2ccccc2)OC1=O)c1cccs1,> 100 µM (inactive),> 100 µM (inactive),> 100 µM (inactive),> 100 µM (inactive),63.7 µM (inactive),> 100 µM (inactive),> 100 µM (inactive),> 100 µM (inactive),> 100 µM (inactive),64.7 µM (inactive),> 100 µM (inactive),37.3 µM (inactive),> 100 µM (inactive),68.9 µM (inactive),> 100 µM (inactive),> 100 µM (inactive),> 100 µM (inactive),> 100 µM (inactive),,> 100 µM (inactive)
COC(=O)C(=O)C(C(=O)OC)C(=O)C(=O)Nc1c(Cl)cc([N+](=O)[O-])cc1Cl (stereo unspecified),> 100 µM (inactive),> 100 µM (inactive),> 100 µM (inactive),> 100 µM (inactive),44.9 µM (inactive),> 100 µM (inactive),> 10 µM (inactive),> 100 µM (inactive),> 100 µM (inactive),> 100 µM (inactive),> 100 µM (inactive),80.9 µM (inactive),> 100 µM (inactive),46 µM (inactive),> 100 µM (inactive),,> 100 µM (inactive),> 100 µM (inactive),72.8 µM (inactive),> 100 µM (inactive)
O=[N+]([O-])/C=C(\CS(=O)(=O)c1ccccc1)c1ccc2c(c1)OCO2,28.4 µM (inactive),,27 µM (inactive),38 µM (inactive),80.5 µM (inactive),,47.5 µM (inactive),33.1 µM (inactive),34.8 µM (inactive),37.8 µM (inactive),,,28.4 µM (inactive),60.1 µM (inactive),20.8 µM (inactive),38.9 µM (inactive),31.8 µM (inactive),53.1 µM (inactive),19.7 µM (inactive),
CCCN1C(=O)CN(S(=O)(=O)c2ccc(Cl)cc2)C1=O,> 100 µM (inactive),> 100 µM (inactive),> 100 µM (inactive),> 100 µM (inactive),> 100 µM (inactive),> 100 µM (inactive),71 µM (inactive),> 100 µM (inactive),> 100 µM (inactive),> 100 µM (inactive),> 100 µM (inactive),> 100 µM (inactive),> 100 µM (inactive),,> 100 µM (inactive),> 100 µM (inactive),> 100 µM (inactive),> 100 µM (inactive),,> 100 µM (inactive)
C[N+](C)([O-])CCCNc1ccnc2cccc([N+](=O)[O-])c12,33 µM (inactive),> 100 µM (inactive),> 100 µM (inactive),20.2 µM (inactive),46 µM (inactive),45.8 µM (inactive),34.2 µM (inactive),80.7 µM (inactive),28.4 µM (inactive),47.4 µM (inactive),15.5 µM (inactive),20.5 µM (inactive),20.7 µM (inactive),81.3 µM (inactive),37.7 µM (inactive),20.9 µM (inactive),51.3 µM (inactive),32.9 µM (inactive),,19.8 µM (inactive)
